Reference: PubChem BioAssay (NCI)
Values joined by “and” are separate entries in the source; they are usually repeats but may differ in a detail not shown here. Equal entries are not always repeated.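 Cultured in 96-well plates, cells were exposed to test compound for 48 hours across five concentrations. GI50: concentration for 50% inhibition of growth. The concentration for full growth arrest is given as TGI.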

Assays:
Experiment in all cases: growth of human tumour cells (NCI), 48 h
SR leukemia = tested on: SR leukemia
MDA-MB-435 = tested on: MDA-MB-435
CAKI-1 renal = tested on: CAKI-1 renal
SN12C renal = tested on: SN12C renal
SF-295 CNS = tested on: SF-295 CNS
HCT-116 colon = tested on: HCT-116 colon
TK-10 renal = tested on: TK-10 renal
RPMI-8226 leukemia = tested on: RPMI-8226 leukemia
DU-145 prostate = tested on: DU-145 prostate
OVCAR-4 ovarian = tested on: OVCAR-4 ovarian

SMILES	GI50 (SR leukemia) [µM]	TGI (SR leukemia) [µM]	GI50 (MDA-MB-435) [µM]	TGI (MDA-MB-435) [µM]	GI50 (CAKI-1 renal)	TGI (CAKI-1 renal)	GI50 (SN12C renal) [µM]	TGI (SN12C renal)	GI50 (SF-295 CNS) [µM]	TGI (SF-295 CNS)	GI50 (HCT-116 colon) [µM]	TGI (HCT-116 colon)	GI50 (TK-10 renal) [µM]	TGI (TK-10 renal) [µM]	GI50 (RPMI-8226 leukemia) [µM]	TGI (RPMI-8226 leukemia)	GI50 (DU-145 prostate) [µM]	TGI (DU-145 prostate) [µM]	GI50 (OVCAR-4 ovarian) [µM]	TGI (OVCAR-4 ovarian)
O=C(NCCNc1nccc(-c2c(-c3ccc(F)cc3)nc3sccn23)n1)c1ccccc1	16.7	47.3	2.69	14	2.48 µM	25.1 µM	6.52	48.4 µM	6.97	27.5 µM	4.37	35.8 µM	15.8	48.7	5.88	27 µM	12.7	> 100	15.1	71.7 µM
N=c1n(Cc2ccccc2)c(N)cc(=O)n1Cc1ccccc1	2.28	7.53	3.54	13.8	2.94 µM	16.6 µM	1.34	18.1 µM	2.68	19.1 µM	2.74	10.7 µM	2.22	7.47	3.58	18.1 µM	2.28	6.47	2.41	10.5 µM
O=S(=O)(CCNCc1ccc(-c2ccc3ncnc(Nc4ccc(OCc5cccc(F)c5)c(Cl)c4)c3c2)o1)c1ccccc1	> 25	> 25	> 25	> 25	6.05 µM	> 25 µM	> 25	> 25 µM	> 25	> 25 µM	> 25	> 25 µM	> 13.2	> 25	> 25	> 25 µM	> 25	> 25	> 25	> 25 µM
CCCCCCCCCCCCCCCCCC(=O)OCC(COC1OC(CS(=O)(=O)O)C(O)C(O)C1O)OC(=O)CCCCCCCCCCCCCCCCC (centres undefined)		4.42		> 100		> 100 µM		> 100 µM		> 100 µM		> 100 µM		> 100		> 100 µM		> 100		> 100 µM
S=C(c1ccc2c(c1)OCO2)N1CCN(c2cccc(Cl)c2)CC1	0.382		0.182	0.607		> 100 µM	7.51	> 100 µM	0.387	> 40.9 µM	0.454	14.5 µM	4.55	> 100	0.598	> 100 µM	2.16	> 55.1	7.45	> 100 µM
Brc1ccccc1C=NC12CC3CC(CC(C3)C1)C2		> 28.2		> 100		> 100 µM		> 63.1 µM		> 100 µM		> 100 µM		> 100		> 100 µM		> 100		> 100 µM
N#Cc1cc(N(CCCl)CCCl)c([N+](=O)[O-])cc1[N+](=O)[O-]		35.8		> 100		69.8 µM		> 100 µM		> 100 µM		> 100 µM		> 100		> 100 µM		> 100		> 100 µM
OCC1OC(n2cnc3c2NC=NC[C@H]3O)CC1O (some centres undefined)		443		> 500	351 µM and > 588 µM	495 µM and > 588 µM	> 588	500 µM and > 588 µM	> 588	475 µM and > 588 µM	> 588	500 µM and > 588 µM		> 500	> 588	500 µM and > 588 µM		500	> 588	500 µM and > 588 µM
NC1=CC(=O)c2nc3ccccc3c3ccnc1c23	2.47	> 100	1.22	19	4.98 µM	> 95.6 µM	5.59	> 74.1 µM	0.19	> 39.5 µM	3.99	> 100 µM	6.54	42.5	5.18	> 100 µM	0.495	> 44.6	7.7	> 59 µM
CCN(CC)CCCC(Cc1ccccc1)Nc1c2ccc(Cl)cc2nc2ccc(OC)cc12 (centres undefined)	1.43	4.25	1.5	2.89	2.1 µM	5.9 µM	2.92	10.2 µM	1.86	3.55 µM	1.95	10.7 µM	1.68	3.31	2.08	5.26 µM	5	18.3	2.15	6.2 µM
